According to patent US7772241B2, “Variolin derivatives and their use as antitumor agents” (Pharma Mar S.A., priority 2001, dated 2010):
Where two headings read alike, the source gives them in different places.

Columns and labels:
SK-MEL-28 = assay: Inhibition of cells growth by colorimetric (SRB) assay, SK-MEL-28
Description: (§1) The finality of these assays is to interrupt the growth of a “in vitro” tumor cell culture by means a continued exhibition of the cells to the sample to be testing.
(§2) This form of the assay employs 96 well cell culture microplates of 9 mm diameter (Faircloth, 1988; Mosmann, 1983). Most of the cell lines are obtained from American Type Culture Collection (ATCC) derived from different human cancer types.
(§3) Cells are maintained in RPMI 1640 10% FBS, supplemented with 0.1 g/l penicillin and 0.1 g/l streptomycin sulphate and then incubated at 37° C., 5% CO2 and 98% humidity. For the experiments, cells were harvested from subconfluent cultures using trypsin and resuspended in fresh medium before plating.
(§4) Cells are seeded in 96 well microtiter plates, at 5×10^3 cells per well in aliquots of 195 μl medium, and they are allowed to attach to the plate surface by growing in drug free medium for 18 hours. Afterward, samples are added in aliquots of 5 μl in a ranging from 10 to 10^−8 μg/ml, dissolved in DMSO/EtOH/PBS (0.5:0.5:99). After 48 hours exposure, the antitumor effect are measured by the SRB methodology: cells are fixed by adding 50 μl of cold 50% (wt/vol) trichloroacetic acid (TCA) and incubating for 60 minutes at 4° C. Plates are washed with deionized water and dried. One hundred μl of SRB solution (0.4% wt/vol in 1% acetic acid) is added to each microtiter well and incubated for 10 minutes at room temperature. Unbound SRB is removed by washing with 1% acetic acid. Plates are air dried and bound stain is solubilized with Tris buffer. Optical densities are read on a automated spectrophotometric plate reader at a single wavelength of 490 nm.
(§5) The values for mean +/−SD of data from triplicate wells are calculated. Some parameters for cellular responses can be calculated: GI=growth inhibition, TGI=total growth inhibition (cytostatic effect) and LC=cell killing (cytotoxic effect).

LoVo = assay: Inhibition of cells growth by colorimetric (SRB) assay, LoVo; details: for GI50: read-out: GI50 LOVO, SRB assay, 48 hours exposure
Description: as §1, §2, §3, §4, §5

K-562 = assay: Inhibition of cells growth by colorimetric (SRB) assay, K-562; details: for GI50 / CC50: Homo sapiens, K562, 48 h; for GI50: read-out: GI50 K-562, SRB assay, 48 hours exposure; for CC50: read-out: LC50 K-562, SRB assay, 48 hours exposure; for TGI K-562: SRB assay, 48 hours exposure
Description: as §1, §2, §3, §4, §5

SK-BR-3 = assay: Inhibition of cells growth by colorimetric (SRB) assay, SK-BR-3; details: for GI50 / CC50: Homo sapiens, SK-BR-3, 48 h; for GI50: read-out: GI50 SK-BR-3, SRB assay, 48 hours exposure; for CC50: read-out: LC50 SK-BR-3, SRB assay, 48 hours exposure; for TGI SK-BR-3: SRB assay, 48 hours exposure
Description: as §1, §2, §3, §4, §5

SK-OV-3 = assay: Inhibition of cells growth by colorimetric (SRB) assay, SK-OV-3; details: for GI50 / CC50: Homo sapiens, SK-OV-3, 48 h; for GI50: read-out: GI50 SKOV-3, SRB assay, 48 hours exposure; for CC50: read-out: LC50 SKOV-3, SRB assay, 48 hours exposure; for TGI SKOV-3: SRB assay, 48 hours exposure
Description: as §1, §2, §3, §4, §5

HT-29 = assay: Inhibition of cells growth by colorimetric (SRB) assay, HT-29; details: for GI50 / CC50: Homo sapiens, HT-29, 48 h; for GI50: read-out: GI50 HT-29, SRB assay, 48 hours exposure; for TGI HT-29: SRB assay, 48 hours exposure; for CC50: read-out: LC50 HT-29, SRB assay, 48 hours exposure
Outline: (§6)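 Human tumour cells in RPMI 1640 with 10% FBS were seeded at 5×10^3 cells/well, allowed to attach for 18 h, then exposed to samples at 10 to 10^−8 μg/ml for 48 h. Growth was measured by SRB staining after TCA fixation, with absorbance read at 490 nm in triplicate wells.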

IGROV-1 = assay: Inhibition of cells growth by colorimetric (SRB) assay, IGROV-1; details: for GI50: read-out: GI50 IGROV, SRB assay, 48 hours exposure
Description: as §1, §2, §3, §4, §5

A-549 = assay: Inhibition of cells growth by colorimetric (SRB) assay, A-549; details: for GI50 / CC50: Homo sapiens, A549, 48 h; for GI50: read-out: GI50 A-549, SRB assay, 48 hours exposure; for CC50: read-out: LC50 A-549, SRB assay, 48 hours exposure; for TGI A-549: SRB assay, 48 hours exposure
Outline: as §6

IGROV-ET = assay: Inhibition of cells growth by colorimetric (SRB) assay, IGROV-ET; details: for GI50 / CC50: Homo sapiens, 48 h; for GI50: read-out: GI50 IGROV-ET, SRB assay, 48 hours exposure; for CC50: read-out: LC50 IGROV-ET, SRB assay, 48 hours exposure; for TGI IGROV-ET: SRB assay, 48 hours exposure
Description: as §1, §2, §3, §4, §5

DU-145 = assay: Inhibition of cells growth by colorimetric (SRB) assay, DU-145; details: for GI50: read-out: GI50 DU-145, SRB assay, 48 hours exposure
Description: as §1, §2, §3, §4, §5

PANC-1 = assay: Inhibition of cells growth by colorimetric (SRB) assay, PANC-1; details: for GI50 / CC50: Homo sapiens, PANC-1, 48 h; for GI50: read-out: GI50 PANC-1, SRB assay, 48 hours exposure; for CC50: read-out: LC50 PANC-1, SRB assay, 48 hours exposure; for TGI PANC-1: SRB assay, 48 hours exposure
Description: as §1, §2, §3, §4, §5

LoVo-Dox = assay: Inhibition of cells growth by colorimetric (SRB) assay, LoVo-Dox; details: for GI50 / CC50: Homo sapiens, 48 h; for GI50: read-out: GI50 LOVO-DOX, SRB assay, 48 hours exposure; for CC50: read-out: LC50 LOVO-DOX, SRB assay, 48 hours exposure; for TGI LOVO-DOX: SRB assay, 48 hours exposure
Description: as §1, §2, §3, §4, §5

LNCaP = assay: Inhibition of cells growth by colorimetric (SRB) assay, LNCaP
Description: as §1, §2, §3, §4, §5

[1] = Homo sapiens, SK-MEL-28, 48 h, read-out: GI50 MEL-28, SRB assay, 48 hours exposure
[2] = Homo sapiens, SK-MEL-28, 48 h, read-out: LC50 MEL-28, SRB assay, 48 hours exposure
[3] = Homo sapiens, LoVo, 48 h, read-out: LC50 LOVO, SRB assay, 48 hours exposure
[4] = Homo sapiens, IGROV-1, 48 h, read-out: LC50 IGROV, SRB assay, 48 hours exposure
[5] = Homo sapiens, DU-145, 48 h, read-out: LC50 DU-145, SRB assay, 48 hours exposure

Structure (SMILES) | TGI MEL-28 (SK-MEL-28; SRB assay, 48 hours exposure) | GI50 (LoVo; Homo sapiens, LoVo, 48 h) [µM] | TGI LOVO (LoVo; SRB assay, 48 hours exposure) | GI50 (K-562) [µM] | CC50 (K-562) [µM] | TGI K-562 (K-562) | GI50 (SK-OV-3) [µM] | CC50 (SK-OV-3) [µM] | TGI SKOV-3 (SK-OV-3) | GI50 (HT-29) [µM] | TGI HT-29 (HT-29) | GI50 (IGROV-1; Homo sapiens, IGROV-1, 48 h) [µM] | TGI IGROV (IGROV-1; SRB assay, 48 hours exposure) | GI50 (A-549) [µM] | CC50 (A-549) [µM] | TGI A-549 (A-549) | GI50 (IGROV-ET) [µM] | CC50 (IGROV-ET) [µM] | TGI IGROV-ET (IGROV-ET) | GI50 (DU-145; Homo sapiens, DU-145, 48 h) [µM] | further results
Nc1nccc2c(-c3ccnc(Oc4ccccc4)n3)c3cccnc3n12 [Compound 78] | 1.78E−06 | 0.553 | 1.44E−06 | 5.5 | 28.2 | 2.30E−05 | 0.784 | 28.2 | 1.87E−06 | 1.34 | 2.82E−05 | 0.621 | 1.41E−06 | 0.737 | 8.01 | 1.68E−06 | 1.08 | 14.3 | 2.47E−06 | 0.77 | GI50 (SK-MEL-28; [1]): 0.717 µM; CC50 (SK-MEL-28; [2]): 7.05 µM; CC50 (LoVo; [3]): 5.05 µM; GI50 (SK-BR-3): 0.528 µM; CC50 (SK-BR-3): 2.49 µM; TGI SK-BR-3 (SK-BR-3): 1.15E−06; CC50 (IGROV-1; [4]): 4.74 µM; CC50 (DU-145; [5]): 28.2 µM; TGI DU-145 (DU-145; SRB assay, 48 hours exposure): 1.87E−06; GI50 (PANC-1): 1.34 µM; CC50 (PANC-1): 28.2 µM; TGI PANC-1 (PANC-1): 1.08E−05; GI50 (LoVo-Dox): 0.151 µM; CC50 (LoVo-Dox): 18.2 µM; TGI LOVO-DOX (LoVo-Dox): 1.86E−06
Nc1nccc(-c2c3c(N)ccnc3n3c(N)nccc23)n1 [Compound 90] | 9.68E−07 | 0.276 | 6.54E−07 | 1.23 | 15.8 | 5.28E−06 | 0.465 | 13.9 | 1.15E−06 | 1.27 | 1.44E−05 | 0.339 | 6.92E−07 | 0.887 | 7.05 | 2.05E−06 | 1.92 | 15.8 | 6.95E−06 | 0.355 | GI50 (SK-MEL-28; read-out: GI50 MEL-28, SRB assay, 48 hours exposure): 0.397 µM; CC50 (SK-MEL-28; read-out: LC50 MEL-28, SRB assay, 48 hours exposure): 3.45 µM; CC50 (LoVo; read-out: LC50 LOVO, SRB assay, 48 hours exposure): 1.56 µM; GI50 (SK-BR-3): 0.311 µM; CC50 (SK-BR-3): 1.42 µM; TGI SK-BR-3 (SK-BR-3): 6.64E−07; CC50 (HT-29): 15.8 µM; CC50 (IGROV-1; read-out: LC50 IGROV, SRB assay, 48 hours exposure): 1.41 µM; TGI DU-145 (DU-145; SRB assay, 48 hours exposure): 1.03E−06; CC50 (DU-145; read-out: LC50 DU-145, SRB assay, 48 hours exposure): 10.7 µM; GI50 (PANC-1): 1.18 µM; CC50 (PANC-1): 15.8 µM; TGI PANC-1 (PANC-1): 4.98E−06; GI50 (LoVo-Dox): 0.597 µM; CC50 (LoVo-Dox): 8.07 µM; TGI LOVO-DOX (LoVo-Dox): 1.27E−06
Nc1nccc(-c2c3c(Cl)ccnc3n3c(N)nccc23)n1 [Compound 113] | 6.29E−06 | 1.26 | 7.83E−06 | 6.16 | 32.1 | 2.00E−05 | 1.37 | 32.1 | 5.39E−06 | 4.72 | 3.21E−05 | 2.94 | 8.53E−06 | 4.3 | 21.4 | 9.59E−06 | 1.3 | 32.1 | 6.00E−06 | 1.51 | GI50 (SK-MEL-28; [1]): 2.12 µM; CC50 (SK-MEL-28; [2]): 17.6 µM; CC50 (LoVo; [3]): 32.1 µM; GI50 (LNCaP; Homo sapiens, LNCaP, 48 h, read-out: GI50 LN-caP, SRB assay, 48 hours exposure): 1.57 µM; CC50 (LNCaP; Homo sapiens, LNCaP, 48 h, read-out: LC50 LN-caP, SRB assay, 48 hours exposure): 15.6 µM; TGI LN-caP (LNCaP; SRB assay, 48 hours exposure): 2.39E−06; CC50 (HT-29): 32.1 µM; CC50 (IGROV-1; [4]): 24.1 µM; CC50 (DU-145; [5]): 32.1 µM; TGI DU-145 (DU-145; SRB assay, 48 hours exposure): 6.26E−06; GI50 (PANC-1): 1.11 µM; CC50 (PANC-1): 32.1 µM; TGI PANC-1 (PANC-1): 2.76E−05; GI50 (LoVo-Dox): 2.35 µM; CC50 (LoVo-Dox): 32.1 µM; TGI LOVO-DOX (LoVo-Dox): 1.18E−05
